Assay results from US9056099B2, “Compositions and methods for treating viral diseases” (NovaDrug, LLC, priority 2010, dated 2015).

Tested on: HCV (JFH-1) in Huh7-1 cells
Experiment: Assay for anti-HCV efficacy: JFH-1 HCV infection of Huh7-1 cultures, intracellular HCV RNA by RT-qPCR
Assay type: cell-based, Hepatitis C virus
Details: Compound Example 2 series; % viral titer at 5 μM or 15 μM; HCV-infected Huh7-1 cultures
From the text: In the past, HCV studies involved mainly infected patients and chimpanzees. Recently, a robust HCV infection system was developed with cells derived from the Huh-7 human hepatoma cell line (see, for example, Yu et al., “Development of a cell-based hepatitis C virus infection fluorescent resonance energy transfer assay for high-throughput antiviral compound screening” Antimicrob Agents Chemother. 2009 53:4311-4319 for additional details regarding growing virus stocks, maintenance of the Huh-7 cells, infection parameters, and HCV titers determinations; and Yu & Uprichard “Cell-based hepatitis C virus infection fluorescence resonance energy transfer (FRET) assay for antiviral compound screening” Curr Protoc Microbiol. 2010; Chapter 17: Unit 17.5). Briefly, the assay is based on the unique JFH-1 HCV consensus cDNA derived from an HCV patient. Using reverse genetics, the infectious virus can be rescued from this HCV clone. The recovered viable JFH virus can be passaged serially in Huh-7 cells. For this reason, this system is amenable for testing the activity of potential drugs for their anti-HCV efficacy. The antiviral activity of the compounds described herein is tested in this system.
Initially, 6×10^3 Huh7-1 cells are incubated overnight in each well of collagen-coated BioCoat 96-well plates (BD Biosciences, Bedford, Mass.) in 0.2 mL 10% Medium composed of Dulbecco's modified Eagle's medium supplemented with 10% fetal bovine serum. Subsequently, at 2 day intervals, the cultures are replenished with fresh 0.2 mL 10% Medium. Once the cultures become confluent, they are continually replenished at 2 day intervals with fresh 0.2 mL 10% Medium that also includes 1% dimethyl sulfoxide (DMSO). After 20 days of these replenishments, the Huh7-1 cultures are incubated with fresh 1% Medium (same as 10% Medium except that the serum level is 1%) containing HCV at a multiplicity of infection (MOI) of 0.05 focus forming units (ffu)/cell. The HCV (JFH-1wt Huh7) stock titer is 1.5×10^5 ffu/mL. The next day (day 1 post-infection) and 2 days later (day 3 post-infection) the media are replenished with fresh 1% Medium containing the test compounds dissolved in DMSO. On the 5th day of treatment with the compounds, cell lysates are collected for RNA isolation and Real Time-quantitative Reverse Transcription Polymerase Chain Reaction (RT-qPCR) and culture media are collected for cytotoxicity analysis.
Total RNA is isolated from cells by the guanidine thiocyanate method using standard protocols. One μg RNA is used for cDNA synthesis using TaqMan reverse transcription reagents (Applied Biosystems, Foster City, Calif.) followed by real-time PCR using an Applied Biosystems 7300 real-time thermocycler. Illustrative thermal cycling consists of initial denaturation of 10 min at 95° C. followed by 40 cycles of denaturation (15 s at 95° C.) and annealing/extension (1 m at 60° C.). HCV and human glyceraldehyde-3-phosphate dehydrogenase (GAPDH) RNA levels are determined relative to a standard curve of serial dilutions of plasmid containing JFH-1 HCV or GAPDH cDNA. The PCR primers used to detect GAPDH and HCV are illustratively: GAPDH (NMX002046) 5′-GAAGGTGAAGGTCGGAGTC-3′ (SEQ ID NO: 5) (sense) and 5′-[…]-3′ (SEQ ID NO: 6) (anti-sense) JFH-1 HCV (AB047639) 5′-TCTGCGGAACCGGTGAGTA-3′ (SEQ ID NO: 7) (sense) and 5′-TCAGGCAGTACCACAAGGC-3′ (SEQ ID NO: 8) (anti-sense).
FIGS. 1-7 illustrate the intracellular HCV RNA levels when cultures are incubated with the selected test compounds at the doses shown. When HCV RNA levels are compared among the samples, the data may indicate that the compounds cause a dose dependent decrease in HCV RNA levels relative to the mock-treated (no compound added) HCV infected control.

Structure (SMILES) | Activity (viral titer)
O=C(c1ccccn1)N1C[C@@H](c2ccc(F)cc2)[C@@H]2CN(Cc3ccc(F)cc3)CC[C@@H]21 | − (>60% viral titer at 15 μM (highest concentration tested))
Cc1nn(C)cc1CN1CC[C@H]2[C@@H](C1)[C@H](c1ccc(F)cc1)CN2C(=O)c1cccnc1 | − (>60% viral titer at 15 μM (highest concentration tested))
O=C(c1cccnc1)N1CC(c2ccc(F)cc2)C2CN(Cc3cccc(F)c3)CCC21 (centres unmarked) | − (>60% viral titer at 15 μM (highest concentration tested))
O=C(c1ccc(F)cc1)N1CC(c2ccsc2)C2CN(Cc3ccccc3F)CCC21 (centres unmarked) | − (>60% viral titer at 15 μM (highest concentration tested))
Cc1ccccc1CN1CC[C@H]2[C@@H](C1)[C@H](c1ccsc1)CN2C(=O)c1ccc(F)cc1 | − (>60% viral titer at 15 μM (highest concentration tested))
O=C(c1ccc(F)cc1)N1CC(c2ccsc2)C2CN(Cc3ccccn3)CCC21 (centres unmarked) | − (>60% viral titer at 15 μM (highest concentration tested))
O=C(c1ccc(F)cc1)N1C[C@@H](c2ccsc2)[C@@H]2CN(Cc3cccc(F)c3)CC[C@@H]21 | − (>60% viral titer at 15 μM (highest concentration tested))
Cc1ccc(CN2CCC3C(C2)C(c2ccsc2)CN3C(=O)c2ccc(F)cc2)cc1 (centres unmarked) | − (>60% viral titer at 15 μM (highest concentration tested))
O=C(c1ccc(F)cc1)N1C[C@@H](c2ccsc2)[C@@H]2CN(Cc3ccncc3)CC[C@@H]21 | − (>60% viral titer at 15 μM (highest concentration tested))
O=C(c1ccncc1)N1C[C@@H](c2ccsc2)[C@@H]2CN(Cc3ccccc3Cl)CC[C@@H]21 | − (>60% viral titer at 15 μM (highest concentration tested))
Cc1ccccc1CN1CC[C@H]2[C@@H](C1)[C@H](c1ccsc1)CN2C(=O)c1ccncc1 | − (>60% viral titer at 15 μM (highest concentration tested))
CC(C)c1ccc(CN2CC[C@H]3[C@@H](C2)[C@H](c2ccsc2)CN3C(=O)c2ccncc2)cc1 | − (>60% viral titer at 15 μM (highest concentration tested))
COc1ccc(CN2CC[C@H]3[C@@H](C2)[C@H](c2ccsc2)CN3C(=O)c2ccncc2)cc1 | − (>60% viral titer at 15 μM (highest concentration tested))
COc1cccc(CN2CC[C@H]3[C@@H](C2)[C@H](c2ccsc2)CN3C(=O)c2ccncc2)c1 | − (>60% viral titer at 15 μM (highest concentration tested))
O=C(c1ccncc1)N1C[C@@H](c2ccsc2)[C@@H]2CN(Cc3cccc(F)c3F)CC[C@@H]21 | − (>60% viral titer at 15 μM (highest concentration tested))
Cc1ccc(CN2CCC3C(C2)C(c2ccsc2)CN3C(=O)c2ccncc2)cc1 (centres unmarked) | − (>60% viral titer at 15 μM (highest concentration tested))

Structure (SMILES) | Activity (viral titer)
O=C(c1ccncc1)N1CC(c2ccsc2)C2CN(Cc3ccccc3)CCC21 (centres unmarked) | − (>60% viral titer at 15 μM (highest concentration tested))
O=C(c1ccncc1)N1C[C@@H](c2ccc(F)cc2)[C@@H]2CN(Cc3ccccc3Cl)CC[C@@H]21 | +++ (≦30% viral titer at 5 μM)
O=C(c1ccncc1)N1CC(c2ccc(F)cc2)C2CN(Cc3ccccc3F)CCC21 (centres unmarked) | − (>60% viral titer at 15 μM (highest concentration tested))
Cc1ccccc1CN1CCC2C(C1)C(c1ccc(F)cc1)CN2C(=O)c1ccncc1 (centres unmarked) | − (>60% viral titer at 15 μM (highest concentration tested))
O=C(c1ccncc1)N1C[C@@H](c2ccc(F)cc2)[C@@H]2CN(Cc3ccccn3)CC[C@@H]21 | − (>60% viral titer at 15 μM (highest concentration tested))
O=C(c1ccncc1)N1CC(c2ccc(F)cc2)C2CN(Cc3cccc(F)c3)CCC21 (centres unmarked) | − (>60% viral titer at 15 μM (highest concentration tested))
O=C(c1ccncc1)N1C[C@@H](c2ccc(F)cc2)[C@@H]2CN(Cc3ccc(F)cc3)CC[C@@H]21 | − (>60% viral titer at 15 μM (highest concentration tested))
O=C(c1ccncc1)N1CC(c2ccc(F)cc2)C2CN(Cc3ccncc3)CCC21 (centres unmarked) | − (>60% viral titer at 15 μM (highest concentration tested))
O=C(c1ccncc1)N1CC(c2ccc(F)cc2)C2CN(Cc3ccccc3)CCC21 (centres unmarked) | − (>60% viral titer at 15 μM (highest concentration tested))
O=C(c1ccccc1)N1C[C@@H](c2ccsc2)[C@@H]2CN(Cc3ccccc3Cl)CC[C@@H]21 | − (>60% viral titer at 15 μM (highest concentration tested))
COc1ccccc1CN1CC[C@H]2[C@@H](C1)[C@H](c1ccsc1)CN2C(=O)c1ccccc1 | − (>60% viral titer at 15 μM (highest concentration tested))
O=C(c1ccccc1)N1C[C@@H](c2ccsc2)[C@@H]2CN(Cc3cccc(F)c3)CC[C@@H]21 | − (>60% viral titer at 15 μM (highest concentration tested))
O=C(c1ccccc1)N1CC(c2ccsc2)C2CN(Cc3cccnc3)CCC21 (centres unmarked) | − (>60% viral titer at 15 μM (highest concentration tested))
O=C(c1ccccc1)N1C[C@@H](c2ccsc2)[C@@H]2CN(Cc3ccc(F)cc3)CC[C@@H]21 | ++ (≦60% viral titer at 5 μM)
O=C(c1ccccc1)N1CC(c2ccsc2)C2CN(Cc3ccccc3)CCC21 (centres unmarked) | ++ (≦60% viral titer at 5 μM)
COc1ccc(C2CN(C(=O)c3ccccc3)C3CCN(Cc4ccc(F)cc4)CC23)cc1 (centres unmarked) | +++ (≦30% viral titer at 5 μM)
